Measured values as given in US10584129B2, “Substituted 6,7-dihydropyrazolo[1,5-a]pyrazines as negative allosteric modulators of mGluR2 receptors” (Janssen Pharmaceutica NV, priority 2013, dated 2020).

Tested on: Wiga rats
Experiment: Reserpine interaction test in rats
Assay type: in vivo, rat
Conditions: PO, Time 60, reserpine 10 mg/kg SC, -1 h; for ED50: Rattus norvegicus, read-out: ED50 reversal of reserpine-induced ptosis

SMILES	ED50	ED50 reversal of reserpine-induced ptosis
Cc1cc(-c2cnn3c2C(=O)N(c2ccc(Cl)cc2C)CC3C)ccn1 (stereo not shown) [compound 172]	1.26 mg/kg	
Cc1cc(-c2cnn3c2C(=O)N(c2ccc(C(F)(F)F)cn2)CC3C)cc(C)n1 (stereo not shown) [compound 194]	5 mg/kg	
COc1cc(Cl)ccc1N1CC(C)n2ncc(-c3ccnc(C)c3)c2C1=O (stereo not shown) [compound 161]	3.15 mg/kg	
CCOc1ccc(Cl)c(N2CC(C)n3ncc(-c4ccnc(C)c4)c3C2=O)n1 (stereo not shown) [compound 195]	1.25 mg/kg	
Cc1cc(-c2cnn3c2C(=O)N(c2ccc(Cl)cc2Cl)C[C@@H]3C)ccn1 [compound 167]	0.1 mg/kg	
Cc1cc(-c2cnn3c2C(=O)N(c2ccc(C(F)(F)F)cc2)CC3(C)C)ccn1 [compound 171]		5 mg/kg
CNc1cc(-c2cnn3c2C(=O)N(c2ccc(C(F)(F)F)cc2)C[C@@H]3C)ccn1 [compound 147]	7.94 mg/kg	
